pEC50: −log10 of the molar value. Structures can show the parent of a compound that is named as a salt.
Molecular target: Glycogen synthase kinase-3 beta (Homo sapiens, UniProt P49841)
Experiment: GSK3beta kinase inhibitor potency, dose response, biochemical, luminescence, cell-free homogeneous, retest (AID 434954)

Sequence of Glycogen synthase kinase-3 beta (P49841 whole entry): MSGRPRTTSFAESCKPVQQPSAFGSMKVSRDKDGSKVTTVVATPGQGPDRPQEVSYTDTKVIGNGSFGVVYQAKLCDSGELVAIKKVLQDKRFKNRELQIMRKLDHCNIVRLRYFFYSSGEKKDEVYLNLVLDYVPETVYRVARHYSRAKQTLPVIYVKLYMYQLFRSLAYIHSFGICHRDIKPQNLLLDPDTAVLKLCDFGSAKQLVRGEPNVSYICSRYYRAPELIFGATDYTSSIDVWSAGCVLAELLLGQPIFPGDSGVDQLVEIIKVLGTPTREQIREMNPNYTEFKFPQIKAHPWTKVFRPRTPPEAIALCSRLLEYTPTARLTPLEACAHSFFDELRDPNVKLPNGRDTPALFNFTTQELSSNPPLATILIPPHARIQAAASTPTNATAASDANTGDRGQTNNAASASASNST

pEC50	Structure (SMILES)
< 3.52	COc1ccc(OC)c(Nc2c3ccccc3nc3ccccc23)c1 [N-(2,5-dimethoxyphenyl)-9-acridinamine]
< 3.52	O=C(Nc1ccccc1Cl)N1CCSc2ccccc21 [N-(2-chlorophenyl)-2,3-dihydro-4H-1,4-benzothiazine-4-carboxamide]
< 3.52	CCn1c(SCC(=O)Nc2ccccc2Cl)nnc1C1CC1 [N-(2-chlorophenyl)-2-[(5-cyclopropyl-4-ethyl-1,2,4-triazol-3-yl)sulfanyl]ethanamide]
< 3.52	CC1=C(C(=O)Nc2ccccc2F)C(c2ccsc2)C2C(=O)CC(C)(C)CC2=N1 (centres undefined) [N-(2-fluorophenyl)-2,7,7-trimethyl-5-oxo-4-(3-thiophenyl)-1,4,6,8-tetrahydroquinoline-3-carboxamide]
< 3.52	O=C(Cn1c2ccccc2c(=O)c2ccccc21)Nc1ccccc1F [N-(2-fluorophenyl)-2-(9-oxoacridin-10-yl)acetamide]
< 3.52	Fc1ccccc1Nc1nc(-c2ccncc2)nc2ccccc12 [N-(2-fluorophenyl)-2-pyridin-4-yl-quinazolin-4-amine]
< 3.52	c1cncc(-c2nc(NCc3ccco3)c3ccccc3n2)c1 [N-(2-furanylmethyl)-2-(3-pyridinyl)-4-quinazolinamine]
< 3.52	CC(C(=O)NCc1ccco1)n1cc([N+](=O)[O-])cn1 (centres undefined) [N-(2-furylmethyl)-2-(4-nitro-1H-pyrazol-1-yl)propanamide]
3.70	COCCNc1nc(SC)nc2sc3c(c12)CCN(C)C3 [N-(2-methoxyethyl)-7-methyl-2-methylsulfanyl-6,8-dihydro-5H-pyrido[4,5]thieno[1,2-c]pyrimidin-4-amine]
< 3.52	CC1CCCCC1NC(=O)CN(C)S(=O)(=O)c1cccc2cccnc12 (centres undefined) [N-(2-methylcyclohexyl)-2-[methyl(quinolin-8-ylsulfonyl)amino]acetamide]
< 3.52	O=C(Nc1ccccn1)Nc1ccccc1[N+](=O)[O-] [N-(2-nitrophenyl)-N'-pyridin-2-ylurea]
< 3.52	O=C(NCCc1nnc2ccc(NCC3CCCO3)nn12)c1ccccc1 (centres undefined) [N-(2-{6-[(tetrahydrofuran-2-ylmethyl)amino][1,2,4]triazolo[4,3-b]pyridazin-3-yl}ethyl)benzamide]
< 3.52	COc1ccc(NC(=O)Nc2ccccn2)cc1OC [N-(3,4-dimethoxyphenyl)-N'-2-pyridinylurea]
< 3.52	C=CCN(c1ccc(C(=O)Nc2ccc(C)c(C)c2)cc1)S(C)(=O)=O [N-(3,4-dimethylphenyl)-4-[methylsulfonyl(prop-2-enyl)amino]benzamide]
< 3.52	O=C(CC1NCCNC1=O)Nc1cc(Cl)cc(Cl)c1 (centres undefined) [N-(3,5-dichlorophenyl)-2-(3-oxopiperazin-2-yl)acetamide]
< 3.52	Cc1ccc(NC(=O)Nc2cc(-c3ccccc3)nn2C)cc1Cl [N-(3-chloro-4-methylphenyl)-N'-(1-methyl-3-phenyl-1H-pyrazol-5-yl)urea]
< 3.52	CCCN(C(=O)CCNC(=O)Cn1cnc2ccccc2c1=O)c1cccc(Cl)c1 [N-(3-chlorophenyl)-3-[[2-(4-oxoquinazolin-3-yl)acetyl]amino]-N-propylpropanamide]
< 3.52	Cc1cccc(OCc2nnc(SCC(=O)Nc3sc(C)c(C)c3C#N)n2C)c1 [N-(3-cyano-4,5-dimethylthiophen-2-yl)-2-[[4-methyl-5-[(3-methylphenoxy)methyl]-1,2,4-triazol-3-yl]sulfanyl]acetamide]
< 3.52	Cc1ccc(NC(=O)CSc2nccn2C)cc1F [N-(3-fluoro-4-methylphenyl)-2-[(1-methyl-2-imidazolyl)thio]acetamide]
< 3.52	O=C(CCc1nnc(CCCCc2ccccc2)o1)NCc1cccc(F)c1 [N-(3-fluorobenzyl)-3-[5-(4-phenylbutyl)-1,3,4-oxadiazol-2-yl]propanamide]
< 3.52	Cc1nc(NCCCn2ccnc2)c2ccccc2n1 [N-(3-imidazol-1-ylpropyl)-2-methyl-quinazolin-4-amine;hydrochloride]
6.28	COCCCNC(=O)c1cccn2c(=O)c3cc4ccccc4cc3nc12 [N-(3-methoxypropyl)-12-oxidanylidene-12H-benzo[g]pyrido[2,1-b]quinazoline-4-carboxamide]

The remaining lines, values behind:

Structure (SMILES)	pEC50
COc1ccc(CN(CC(=O)NCCc2ccccc2)C(=O)CCC(=O)Nc2ccccn2)cc1 [N'-[(4-methoxyphenyl)methyl]-N'-[2-oxo-2-(2-phenylethylamino)ethyl]-N-pyridin-2-ylbutanediamide]	< 3.52
O=C(COc1cccc2cccnc12)NN=Cc1ccc(O)cc1 [N'-[(4-oxo-1-cyclohexa-2,5-dienylidene)methyl]-2-(8-quinolinyloxy)acetohydrazide]	5.03
O=C(NN=Cc1cc(Br)ccc1O)c1ccccc1Cl [N'-[(E)-(3-bromo-6-oxocyclohexa-2,4-dien-1-ylidene)methyl]-2-chlorobenzohydrazide]	< 3.52
CC(CC(=O)Nc1cc(C)ccn1)=NNC(=O)C(=O)NC(C)C [N'-[[4-[(4-methylpyridin-2-yl)amino]-4-oxidanylidene-butan-2-ylidene]amino]-N-propan-2-yl-ethanediamide]	< 3.52
O=C(Cn1nnc(-c2ccccc2)n1)NN=Cc1ccc(-c2ccc(Cl)cc2)o1 [N'-{[5-(4-chlorophenyl)-2-furyl]methylene}-2-(5-phenyl-2H-tetrazol-2-yl)acetohydrazide]	< 3.52
CC(=NNC(=O)c1ccc(C(=O)NN=C(C)c2ccco2)o1)c1ccco1 [N'~2~,N'~5~-bis[1-(2-furyl)ethylidene]-2,5-furandicarbohydrazide]	< 3.52
c1ccc(Nc2ccnc(Nc3ccccc3)n2)cc1 [N*2*,N*4*-Diphenyl-pyrimidine-2,4-diamine]	4.43
c1ccc(Nc2nc(-c3ccccc3)nc3ccccc23)cc1 [N,2-diphenylquinazolin-4-amine]	< 3.52
CCC(=O)Nc1ccc(Nc2nc(C)c([N+](=O)[O-])c(Nc3ccc(NC(=O)CC)cc3)n2)cc1 [N,N'-[(6-methyl-5-nitro-2,4-pyrimidinediyl)bis(imino-4,1-phenylene)]dipropanamide]	< 3.52
O=C(Nc1ccccn1)C(=O)Nc1ccccn1 [N,N'-dipyridin-2-ylethanediamide]	< 3.52
CCN(CC)C(=O)COc1cc(C)cc2oc(=O)cc(-c3ccccc3)c12 [N,N-diethyl-2-(7-methyl-2-oxo-4-phenylchromen-5-yl)oxyacetamide]	< 3.52
CN(C)CCc1cc2c(c3c1ccc1ccccc13)OCO2 [N,N-dimethyl-2-(5-naphtho[2,1-g][1,3]benzodioxolyl)ethanamine;hydrochloride]	4.59
O=C(Nc1ccc2c(c1)OCO2)Nc1ccccn1 [N-1,3-benzodioxol-5-yl-N'-2-pyridinylurea]	< 3.52
CN(C(=O)CSc1nnc(-c2c[nH]c3ccccc23)o1)C1CCS(=O)(=O)C1 (centres undefined) [N-(1,1-dioxothiolan-3-yl)-2-[[(2Z)-2-indol-3-ylidene-3H-1,3,4-oxadiazol-5-yl]sulfanyl]-N-methylacetamide]	< 3.52
O=C(CN1C(=O)CCC1=O)Nc1ccc2c3c(cccc13)CC2 [N-(1,2-dihydroacenaphthylen-5-yl)-2-(2,5-dioxo-1-pyrrolidinyl)acetamide]	< 3.52
CC(C)(C)C1CCc2onc(C(=O)Nc3ccc4c(c3)OCO4)c2C1 (centres undefined) [N-(1,3-benzodioxol-5-yl)-5-tert-butyl-4,5,6,7-tetrahydro-1,2-benzoxazole-3-carboxamide]	< 3.52

Structure (SMILES)	pEC50
c1cncc(-c2nc(NCc3ccc4c(c3)OCO4)c3ccccc3n2)c1 [N-(1,3-benzodioxol-5-ylmethyl)-2-(3-pyridinyl)-4-quinazolinamine]	< 3.52
O=C(Nc1cccc2c1C(=O)NC2=O)c1ccccc1[N+](=O)[O-] [N-(1,3-dioxo-4-isoindolyl)-2-nitrobenzamide]	< 3.52
CC(=O)Nc1cccc2c1C(=O)NC2=O [N-(1,3-dioxoisoindol-4-yl)acetamide]	4.50
Cc1c(NC(=O)C(C)n2cc([N+](=O)[O-])cn2)c(=O)n(-c2ccccc2)n1C (centres undefined) [N-(1,5-dimethyl-3-oxo-2-phenylpyrazol-4-yl)-2-(4-nitropyrazol-1-yl)propanamide]	< 3.52
O=C(Cn1cc2c(n1)CCCCC2)NC1CCN(Cc2ccccc2)CC1 [N-(1-benzylpiperidin-4-yl)-2-(5,6,7,8-tetrahydro-4H-cyclohepta[c]pyrazol-2-yl)acetamide]	< 3.52
CCCCn1nc(NC(=O)COC)c2cc3cc(OC)ccc3nc21 [N-(1-butyl-6-methoxy-3-pyrazolo[3,4-b]quinolinyl)-2-methoxyacetamide]	< 3.52
CCCCn1nc(NC(=O)CC(C)C)c2cc3cc(OC)ccc3nc21 [N-(1-butyl-6-methoxy-3-pyrazolo[3,4-b]quinolinyl)-3-methylbutanamide]	< 3.52
CCCCn1nc(NC(=O)CC)c2cc3cc(OC)ccc3nc21 [N-(1-butyl-6-methoxy-pyrazolo[3,4-b]quinolin-3-yl)propanamide]	4.36
CCn1nc(NC(=O)C2CCCO2)c2cc3cc(C)ccc3nc21 (centres undefined) [N-(1-ethyl-6-methyl-pyrazolo[3,4-b]quinolin-3-yl)oxolane-2-carboxamide]	< 3.52
CCn1nc(NC(=O)CC(C)C)c2cc3ccc(C)cc3nc21 [N-(1-ethyl-7-methylpyrazolo[3,4-b]quinolin-3-yl)-3-methylbutanamide]	< 3.52
COC(CNC(=O)CCc1c(C)nc2c(c(C)nn2-c2ccc(C)cc2)c1C)OC [N-(2,2-dimethoxyethyl)-3-[3,4,6-trimethyl-1-(4-methylphenyl)pyrazolo[3,4-b]pyridin-5-yl]propanamide]	< 3.52
Cc1ccc(S(=O)(=O)NCC2COc3ccccc3O2)cc1 (centres undefined) [N-(2,3-Dihydro-benzo[1,4]dioxin-2-ylmethyl)-4-methyl-benzenesulfonamide]	< 3.52
c1ccc(CCCCNCC2COc3ccccc3O2)cc1 (centres undefined) [N-(2,3-dihydro-1,4-benzodioxin-3-ylmethyl)-4-phenylbutan-1-amine]	< 3.52
CC(=O)NCC1COc2ccccc2O1 (centres undefined) [N-(2,3-dihydro-1,4-benzodioxin-3-ylmethyl)ethanamide]	< 3.52
O=C(CCc1ccccc1)Nc1ccc2c(c1)OCCO2 [N-(2,3-dihydro-1,4-benzodioxin-6-yl)-3-phenyl-propanamide]	< 3.52
O=C(CCSCCc1ccccn1)Nc1cc(F)ccc1F [N-(2,5-difluorophenyl)-3-(2-pyridin-2-ylethylsulfanyl)propanamide]	< 3.52

From BindingDB's records for doi:10.7270/Q2TX3CTT (Broad Institute, 2010)
